From patent US5744478A, “Thiazolo [3,2-a] quinoline and thiazolo [3,2-a] naphthyridine derivatives” (Bayer Aktiengesellschaft, priority 1994, dated 1998)
In brackets after ≈: the same amount, converted by molar mass.

Tests used:
Assay in all cases: MIC by serial dilution on Iso-Sensitest Agar
Type in all cases: cell-based
E. coli ATCC 25922 = details: Escherichia coli, ATCC25922, 37° C., about 20 hours, about 10^4 colony-forming particles
Procedure: (§1) The minimum inhibitory concentrations (MIC) of the compounds according to the invention were determined by serial dilution methods on Iso-Sensitest Agar (Oxoid). For each test substance, a number of agar plates were prepared which, in each case at double the dilution, contained decreasing concentrations of the active compound. The agar plates were inoculated using a multipoint inoculator (Denley). For inoculation, overnight cultures of the pathogens were used which had previously been diluted such that each inoculation point contained about 10^4 colony-forming particles. The inoculated agar plates were incubated at 37° C., and the bacterial growth was read off after about 20 hours. The MIC value (μg/ml) indicates the lowest active compound concentration at which no growth was to be observed using the naked eye.

E. coli Neumann = details: Escherichia coli, 37° C., about 20 hours, about 10^4 colony-forming particles
Procedure: as §1

[1] = tested on: Enterococcus faecalis 27101; details: 37° C., about 20 hours, about 10^4 colony-forming particles
Procedure: as §1

[2] = tested on: Enterococcus faecalis 9790; details: 37° C., about 20 hours, about 10^4 colony-forming particles
Procedure: as §1

Klebsiella pneumonia 63 = details: Klebsiella pneumoniae, 37° C., about 20 hours, about 10^4 colony-forming particles
Procedure: as §1

[3] = tested on: Klebsiella pneumonia 8085; details: Klebsiella pneumoniae, 37° C., about 20 hours, about 10^4 colony-forming particles
Procedure: as §1

Micrococcus luteus 9341 = details: 37° C., about 20 hours, about 10^4 colony-forming particles
Procedure: as §1

Providencia sp. 12012 = details: 37° C., about 20 hours, about 10^4 colony-forming particles
Procedure: as §1

[4] = tested on: Staphylococcus aureus 133; details: 37° C., about 20 hours, about 10^4 colony-forming particles
Procedure: as §1

[5] = tested on: Staphylococcus aureus ATCC29213; details: 37° C., about 20 hours, about 10^4 colony-forming particles
Procedure: as §1

[6] = tested on: Staphylococcus aureus ICB 25701; details: ICB25701, 37° C., about 20 hours, about 10^4 colony-forming particles
Procedure: as §1

[7] = tested on: Staphylococcus aureus ICB 25768; details: ICB25768, 37° C., about 20 hours, about 10^4 colony-forming particles
Procedure: as §1

SMILES: CC1C=CC(N)C2CN(c3c(F)cc4c(=O)c(C(=O)O)c5scc6n5c4c3OC6)CC12 (stereo not drawn) [Example 5, 8-(2-Amino-5-methyl-8-azabicyclo[4.3.0]non-3-en-8-yl)-7-fluoro-5-oxo-9,1-(epoxymethano)-5H-thiazolo[3,2-a]quinoline-4-carboxylic acid]
- MIC (E. coli ATCC 25922): ≤ 0.015 mg/L
- MIC (E. coli Neumann): ≤ 0.015 mg/L
- MIC [1]: ≤ 0.015 mg/L
- MIC [2]: ≤ 0.015 mg/L
- MIC (Klebsiella pneumonia 63): ≤ 0.015 mg/L
- MIC [3]: ≤ 0.015 mg/L
- MIC (Micrococcus luteus 9341): ≤ 0.015 mg/L
- MIC (Providencia sp. 12012): ≤ 0.015 mg/L
- MIC [4]: ≤ 0.015 mg/L
- MIC [5]: ≤ 0.015 mg/L
- MIC [6]: 0.06 mg/L (≈ 0.136 µM)
- MIC [7]: 0.5 mg/L (≈ 1.13 µM)

SMILES: NC1C=CCC2CN(c3c(F)cc4c(=O)c(C(=O)O)c5scc6n5c4c3OC6)CC12 (stereo not drawn) [Example 4, 8-(2-Amino-8-azabicyclo[4.3.0]non-3-en-8-yl)-7-fluoro-5-oxo-9,1-(epoxymethano)-5H-thiazolo[3,2-a]quinoline-4-carboxylic acid]
- MIC (E. coli ATCC 25922): ≤ 0.015 mg/L
- MIC (E. coli Neumann): ≤ 0.015 mg/L
- MIC [1]: ≤ 0.015 mg/L
- MIC [2]: ≤ 0.015 mg/L
- MIC (Klebsiella pneumonia 63): ≤ 0.015 mg/L
- MIC [3]: ≤ 0.015 mg/L
- MIC (Micrococcus luteus 9341): ≤ 0.015 mg/L
- MIC (Providencia sp. 12012): ≤ 0.015 mg/L
- MIC [4]: ≤ 0.015 mg/L
- MIC [5]: ≤ 0.015 mg/L
- MIC [6]: 0.06 mg/L (≈ 0.14 µM)
- MIC [7]: 0.25 mg/L (≈ 0.585 µM)

SMILES: O=C(O)c1c(=O)c2cc(F)c(N3C[C@@H]4CCCN[C@@H]4C3)c3c2n2c(csc12)CO3 [Example 2]
- MIC (E. coli ATCC 25922): ≤ 0.015 mg/L
- MIC (E. coli Neumann): ≤ 0.015 mg/L
- MIC [1]: 0.03 mg/L (≈ 0.0722 µM)
- MIC [2]: 0.03 mg/L (≈ 0.0722 µM)
- MIC (Klebsiella pneumonia 63): ≤ 0.015 mg/L
- MIC [3]: ≤ 0.015 mg/L
- MIC (Micrococcus luteus 9341): 0.125 mg/L (≈ 0.301 µM)
- MIC (Providencia sp. 12012): ≤ 0.015 mg/L
- MIC [4]: ≤ 0.015 mg/L
- MIC [5]: ≤ 0.015 mg/L
- MIC [6]: 0.5 mg/L (≈ 1.2 µM)
- MIC [7]: 32 mg/L (≈ 77 µM)

SMILES: CNC1C=CCC2CN(c3c(F)cc4c(=O)c(C(=O)O)c5scc6n5c4c3OC6)CC21 (stereo not drawn) [Example 3, 7-Fluoro-8-(2-methylamino-8-azabicyclo[4.3.0]non-3-en-8-yl)-5-oxo-9,1-(epoxymethano)-5H-thiazolo[3,2-a]quinoline-4-carboxylic acid]
- MIC (E. coli ATCC 25922): ≤ 0.015 mg/L
- MIC (E. coli Neumann): ≤ 0.015 mg/L
- MIC [1]: ≤ 0.015 mg/L
- MIC [2]: ≤ 0.015 mg/L
- MIC (Klebsiella pneumonia 63): ≤ 0.015 mg/L
- MIC [3]: ≤ 0.015 mg/L
- MIC (Micrococcus luteus 9341): ≤ 0.015 mg/L
- MIC (Providencia sp. 12012): ≤ 0.015 mg/L
- MIC [4]: ≤ 0.015 mg/L
- MIC [5]: ≤ 0.015 mg/L
- MIC [6]: 0.06 mg/L (≈ 0.136 µM)
- MIC [7]: 0.5 mg/L (≈ 1.13 µM)
